Test results as given in PubChem BioAssay AID236 (DTP/NCI, 2004).
Where “and” joins values, the source holds several entries; their conditions need not be identical. Identical values can stand only once. Toxic doses and inconclusive results are not listed.

System: AK4 lymphoid leukemia ip, C3AKF1 mice, survival
Experiment: NCI In Vivo Anticancer Drug Screen. Data for tumor model AK4 Lymphoid Leukemia (intraperitoneal) in C3AKF1 (CHKRF1) mice
Details: endpoint: median survival time, higher = longer survival
Experimental: The antitumor activity of compounds was measured in mice bearing transplantable tumors. Survival or tumor size were measured and the results are expressed as the measurement made in the treated group (T) divided by the measurement made in the vehicle treated control group (C). The tumor model used in this assay is AK4 Lymphoid Leukemia (intraperitoneal) in C3AKF1 (CHKRF1) mice

[1] = dose: 0.5 mg/kg/injection, schedule: Q01DX010 (ip), vehicle: saline
[2] = dose: 1.0 mg/kg/injection, schedule: Q01DX010 (ip), vehicle: saline
[3] = dose: 20.0 mg/kg/injection, schedule: Q01DX010 (ip), vehicle: saline
[4] = dose: 40.0 mg/kg/injection, schedule: Q01DX010 (ip), vehicle: saline
[5] = dose: 80.0 mg/kg/injection, schedule: Q01DX010 (ip), vehicle: saline
[6] = dose: 12.5 mg/kg/injection, schedule: Q01DX010 (ip), vehicle: saline
[7] = dose: 2.0 mg/kg/injection, schedule: Q01DX010 (ip), vehicle: saline
[8] = dose: 4.0 mg/kg/injection, schedule: Q01DX010 (ip), vehicle: saline
[9] = dose: 8.0 mg/kg/injection, schedule: Q01DX010 (ip), vehicle: saline
[10] = dose: 25.0 mg/kg/injection, schedule: Q01DX010 (ip), vehicle: saline
[11] = dose: 60.0 mg/kg/injection, schedule: Q01DX010 (ip), vehicle: saline
[12] = dose: 50.0 mg/kg/injection, schedule: Q01DX010 (ip), vehicle: saline
[13] = dose: 100.0 mg/kg/injection, schedule: Q01DX010 (ip), vehicle: saline
[14] = dose: 200.0 mg/kg/injection, schedule: Q01DX010 (ip), vehicle: saline
[15] = dose: 62.5 mg/kg/injection, schedule: Q01DX010 (ip), vehicle: saline
[16] = dose: 125.0 mg/kg/injection, schedule: Q01DX010 (ip), vehicle: saline
[17] = dose: 250.0 mg/kg/injection, schedule: Q01DX010 (ip), vehicle: saline
[18] = dose: 125.0 micrograms/kg/injection, schedule: Q01DX010 (ip), vehicle: saline
[19] = dose: 250.0 micrograms/kg/injection, schedule: Q01DX010 (ip), vehicle: saline
[20] = dose: 500.0 micrograms/kg/injection, schedule: Q01DX010 (ip), vehicle: saline

With `S=c1nc[nH]c2nc[nH]c12` the T/C (dose: 5.0 mg/kg/injection, schedule: Q01DX010 (ip), vehicle: alkali diluted with saline) was 100 % of control, the T/C (dose: 5.0 mg/kg/injection, schedule: Q01DX Z (ip), vehicle: saline) was 93 % of control and the T/C (dose: 10.0 mg/kg/injection, schedule: Q01DX010 (ip), vehicle: alkali diluted with saline) was 95 % of control and 118 % of control. For the same compound, the T/C (dose: 10.0 mg/kg/injection, schedule: Q01DX Z (ip), vehicle: saline) was 93 % of control and 96 % of control, the T/C (dose: 20.0 mg/kg/injection, schedule: Q01DX010 (ip), vehicle: alkali diluted with saline) was 100 % of control and 112 % of control and the T/C (dose: 20.0 mg/kg/injection, schedule: Q01DX Z (ip), vehicle: saline) was 90 % of control and 106 % of control. The T/C (dose: 40.0 mg/kg/injection, schedule: Q01DX010 (ip), vehicle: alkali diluted with saline) was 93 % of control and 110 % of control, the T/C (dose: 40.0 mg/kg/injection, schedule: Q01DX Z (ip), vehicle: saline) was 93 % of control and 96 % of control and the T/C (dose: 80.0 mg/kg/injection, schedule: Q01DX010 (ip), vehicle: alkali diluted with saline) was 100 % of control. For the same compound, the T/C (dose: 80.0 mg/kg/injection, schedule: Q01DX Z (ip), vehicle: saline) was 93 % of control and 96 % of control.
With `C1CN1c1nc(N2CC2)nc(N2CC2)n1` the T/C (dose: 0.25 mg/kg/injection, schedule: Q01DX010 (ip), vehicle: saline) was 116 % of control, the T/C [1] was 150 % of control and the T/C [2] was 111 % of control.
For `Cn1c(N)nc2nc[nH]c2c1=S`, the T/C (dose: 5.0 mg/kg/injection, schedule: Q01DX010 (ip), vehicle: saline) was 100 % of control, the T/C (dose: 10.0 mg/kg/injection, schedule: Q01DX010 (ip), vehicle: saline) was 100 % of control and 122 % of control and the T/C [3] was 88 % of control and 105 % of control. The T/C [4] was 88 % of control and 100 % of control and the T/C [5] was 111 % of control.
In the case of `O=NN(CCCl)C(=O)NCCCl`, the T/C (dose: 6.25 mg/kg/injection, schedule: Q01DX010 (ip), vehicle: saline) was 168 % of control and 185 % of control and the T/C [6] was 160 % of control and 181 % of control.
In the case of `NC(Cc1c[nH]c2ccc(N(CCCl)CCCl)cc12)C(=O)O` (stereo not given), the T/C [7] was 156 % of control and the T/C [8] was 175 % of control.
For `CC(CCC(C)OS(C)(=O)=O)OS(C)(=O)=O` (stereo not given), the T/C [7] was 88 % of control, the T/C [8] was 88 % of control and the T/C [9] was 94 % of control.
For `O=c1c(O)cccc2cc(O)c(O)c(O)c12`, the T/C [10] was 94 % of control.
With `CN1CC[C@]23c4c5ccc(O)c4O[C@H]2C(=O)CC[C@H]3[C@H]1C5` the T/C [1] was 94 % of control, the T/C [2] was 105 % of control and the T/C [7] was 94 % of control. The T/C [8] was 88 % of control and 94 % of control and the T/C [9] was 88 % of control.
For `Clc1ncnc2nc[nH]c12`, the T/C (dose: 7.5 mg/kg/injection, schedule: Q01DX010 (ip), vehicle: saline) was 100 % of control and 87 % of control, the T/C (dose: 15.0 mg/kg/injection, schedule: Q01DX010 (ip), vehicle: saline) was 100 % of control and 114 % of control and the T/C (dose: 30.0 mg/kg/injection, schedule: Q01DX010 (ip), vehicle: saline) was 100 % of control and 87 % of control. For the same compound, the T/C [11] was 87 % of control and 100 % of control.
For `CC(=O)Nc1ccc2nc3ccc(NC(C)=O)cc3[n+](-c3ccccc3)c2c1`, the T/C [12] was 117 % of control, the T/C [13] was 105 % of control and the T/C [14] was 117 % of control. For the same compound, the T/C (dose: 400.0 mg/kg/injection, schedule: Q01DX010 (ip), vehicle: saline) was 105 % of control.
For `O=c1[nH]cc(F)c(=O)[nH]1`, the T/C [3] was 162 % of control, the T/C [4] was 112 % of control and the T/C [5] was 93 % of control.
`Nc1c(Br)cc2c(c1Br)Cc1cc([N+](=O)[O-])ccc1-2` was tested, and the T/C [15] was 100 % of control and 105 % of control, the T/C [16] was 94 % of control and 100 % of control and the T/C [17] was 94 % of control and 105 % of control. For the same compound, the T/C (dose: 500.0 mg/kg/injection, schedule: Q01DX010 (ip), vehicle: saline) was 94 % of control.
For `Nc1ncnc2c1ccn2C1OC(CO)C(O)C1O` (stereo not given), the T/C (dose: 156.0 micrograms/kg/injection, schedule: Q01DX010 (ip), vehicle: saline) was 106 % of control, the T/C (dose: 313.0 micrograms/kg/injection, schedule: Q01DX010 (ip), vehicle: saline) was 112 % of control and the T/C (dose: 625.0 micrograms/kg/injection, schedule: Q01DX010 (ip), vehicle: saline) was 112 % of control. For the same compound, the T/C (dose: 1250.0 micrograms/kg/injection, schedule: Q01DX010 (ip), vehicle: saline) was 112 % of control.
For `COS(C)(=O)=O`, the T/C [6] was 100 % of control and 105 % of control, the T/C [10] was 100 % of control and the T/C [12] was 88 % of control and 116 % of control. The T/C [13] was 100 % of control and 111 % of control.
In the case of `CN(Cc1cnc2nc(N)nc(N)c2n1)c1ccc(C(=O)N[C@@H](CCC(=O)O)C(=O)O)cc1`, the T/C (dose: 0.19 mg/kg/injection, schedule: Q01DX Z (ip), vehicle: saline) was 120 % of control, the T/C (dose: 0.38 mg/kg/injection, schedule: Q01DX010 (ip), vehicle: other) was 155 % of control and 181 % of control and the T/C (dose: 0.38 mg/kg/injection, schedule: Q01DX Z (ip), vehicle: saline) was 180 % of control. The T/C (dose: 0.75 mg/kg/injection, schedule: Q01DX010 (ip), vehicle: other) was 160 % of control and 181 % of control, the T/C (dose: 0.75 mg/kg/injection, schedule: Q01DX Z (ip), vehicle: saline) was 253 % of control and 361 % of control and the T/C (dose: 1.5 mg/kg/injection, schedule: Q01DX010 (ip), vehicle: other) was 185 % of control and 256 % of control. For the same compound, the T/C (dose: 3.0 mg/kg/injection, schedule: Q01DX010 (ip), vehicle: other) was 175 % of control.
For `COc1ccc2c(c1OC)C(=O)O[C@@H]2[C@H]1c2c(cc3c(c2OC)OCO3)CCN1C`, the T/C (dose: 0.9 mg/kg/injection, schedule: Q01DX010 (ip), vehicle: saline) was 100 % of control, the T/C (dose: 1.9 mg/kg/injection, schedule: Q01DX010 (ip), vehicle: saline) was 87 % of control and the T/C (dose: 3.9 mg/kg/injection, schedule: Q01DX010 (ip), vehicle: saline) was 87 % of control. For the same compound, the T/C (dose: 7.8 mg/kg/injection, schedule: Q01DX010 (ip), vehicle: saline) was 111 % of control and 87 % of control, the T/C (dose: 15.6 mg/kg/injection, schedule: Q01DX010 (ip), vehicle: saline) was 100 % of control and the T/C (dose: 31.3 mg/kg/injection, schedule: Q01DX010 (ip), vehicle: saline) was 100 % of control. The T/C [15] was 94 % of control, the T/C [16] was 88 % of control and the T/C [17] was 88 % of control.
For `CS(=O)(=O)OCC(O)C(O)C(O)C(O)COS(C)(=O)=O` (stereo not given), the T/C [6] was 112 % of control, the T/C [10] was 100 % of control and 105 % of control and the T/C [12] was 94 % of control. The T/C [13] was 87 % of control and 100 % of control and the T/C [14] was 100 % of control.
With `CCN(CC)c1ccc2cc3ccc(=[N+](CC)CC)cc-3oc2c1` the T/C [2] was 100 % of control, the T/C [7] was 100 % of control and the T/C [8] was 100 % of control. The T/C [9] was 100 % of control.
`CN(N=O)C(=O)NC(C=O)C(O)C(O)C(O)CO` (stereo not given) was tested, and the T/C [11] was 150 % of control and the T/C (dose: 90.0 mg/kg/injection, schedule: Q01DX010 (ip), vehicle: saline) was 150 % of control.
`CS(=O)(=O)OCCN(CCOS(C)(=O)=O)c1ccc(N=O)cc1` was tested, and the T/C [1] was 111 % of control, the T/C [2] was 111 % of control and the T/C [7] was 94 % of control. The T/C [8] was 88 % of control, the T/C (dose: 62.5 micrograms/kg/injection, schedule: Q01DX010 (ip), vehicle: saline) was 110 % of control and the T/C [18] was 115 % of control. The T/C [19] was 115 % of control and the T/C [20] was 115 % of control.
For `Nc1nc(F)nc2c1ncn2C1OC(CO)C(O)C1O` (stereo not given), the T/C [1] was 105 % of control, the T/C [2] was 100 % of control and the T/C [7] was 100 % of control and 111 % of control. The T/C [8] was 100 % of control and 105 % of control.
With `CCN(CC)CCNc1ccc(C)c2sc3ccccc3c(=O)c12` the T/C [10] was 122 % of control and the T/C [13] was 105 % of control.
`CC(=O)NC1=C(N2CC2)C(=O)C(NC(C)=O)=C(N2CC2)C1=O` was tested, and the T/C [1] was 152 % of control, the T/C [2] was 152 % of control and the T/C [7] was 88 % of control. For the same compound, the T/C [18] was 100 % of control, the T/C [19] was 111 % of control and the T/C [20] was 116 % of control.
With `C[C@]12C=CC(=O)C=C1CC[C@@H]1[C@@H]2[C@@H](O)C[C@@]2(C)[C@H]1CC[C@]2(O)C(=O)CO` the T/C (dose: 12.5 mg/kg/injection, schedule: Q01DX010 (sc), vehicle: steriod suspending solution) was 90 % of control and 110 % of control, the T/C (dose: 25.0 mg/kg/injection, schedule: Q01DX010 (sc), vehicle: steriod suspending solution) was 95 % of control and the T/C (dose: 50.0 mg/kg/injection, schedule: Q01DX010 (sc), vehicle: steriod suspending solution) was 100 % of control and 105 % of control. The T/C (dose: 100.0 mg/kg/injection, schedule: Q01DX010 (sc), vehicle: steriod suspending solution) was 90 % of control.
